{"source": "patent US6451339B2", "about": "“Compositions and methods for improved delivery of hydrophobic agents” (Lipocine, Inc., priority 1999, dated 2002)", "key": {"[1]": {"conditions": "value reported by the manufacturer of the commercial product, a rough average, or inventors' judgment; cited from earlier work"}, "[2]": {"experiment": "Surfactant combinations giving clear aqueous dispersions (maximum hydrophobic surfactant, visual optical clarity)", "conditions": "for approximate maximum grams of hydrophobic surfactant per 100 g of hydrophilic surfactant giving acceptable optical clarity: 10× aqueous dispersion, no solubilizer"}, "[3]": {"conditions": "hydrophilic surfactant Cremophor RH40 + 20% Ethanol"}, "[4]": {"conditions": "hydrophilic surfactant Cremophor RH40 + 20% Glycofurol"}, "[5]": {"conditions": "hydrophilic surfactant Cremophor RH40 + 20% Triacetin"}, "[6]": {"conditions": "hydrophilic surfactant Cremophor RH40, solubilizer (None), reproduced from Table 19"}, "[7]": {"conditions": "hydrophilic surfactant PEG-8 Capric/Caprylic (Labrasol)"}, "[8]": {"conditions": "hydrophilic surfactant PEG-25 Glyceryl trioleate (Tagat TO)"}, "[9]": {"conditions": "hydrophilic surfactant PEG-35 Castor Oil (Incrocas 35)"}, "[10]": {"conditions": "hydrophilic surfactant PEG-40H Castor Oil (Cremophor RH-40)"}, "[11]": {"conditions": "hydrophilic surfactant PEG-60 Corn Oil (Crovol M-70)"}, "[12]": {"conditions": "hydrophilic surfactant Polysorbate 80 (Tween 80)"}, "[13]": {"conditions": "hydrophilic surfactant Polysorbate-20 (Tween 20)"}}, "data": [{"compound": "CCCCCCCCCCCC(=O)OCC(C)OC(=O)CCCCCCCCCCC", "note": "(stereo not drawn) [Propylene glycol dilaurate]", "values": [{"measurement": "HLB", "setting": "[1]", "result": ">6"}]}, {"compound": "CC[C@H](CC[C@@H](C)[C@H]1CC[C@H]2[C@@H]3CC=C4C[C@@H](O)CC[C@]4(C)[C@H]3CC[C@]12C)C(C)C", "note": "[sitosterol]", "values": [{"measurement": "HLB", "setting": "[1]", "result": "<10"}]}, {"compound": "PEG-20 soya sterol", "values": [{"measurement": "HLB", "setting": "[1]", "result": "<10"}]}, {"compound": "CCCCC/C=C\\C/C=C\\CCCCCCCC(=O)OC(C)C", "note": "[Isopropyl linoleate]", "values": [{"measurement": "HLB", "setting": "[1]", "result": "<10"}]}, {"compound": "CCCCCCCC/C=C\\CCCCCCCC(=O)OCC(COC(=O)CCCCCCC/C=C\\CCCCCCCC)(COC(=O)CCCCCCC/C=C\\CCCCCCCC)COC(=O)CCCCCCC/C=C\\CCCCCCCC", "note": "[Pentaerythrityl tetraoleate]", "values": [{"measurement": "HLB", "setting": "[1]", "result": ">10"}]}, {"compound": "mono- and diacetylated monoglycerides [Mono- and monoglycerides]", "values": [{"measurement": "approximate maximum grams of hydrophobic surfactant per 100 g of hydrophilic surfactant giving a clear aqueous dispersion", "setting": "[2]; [3]", "result": "80 g per 100 g of hydrophilic sur"}, {"measurement": "approximate maximum grams of hydrophobic surfactant per 100 g of hydrophilic surfactant giving a clear aqueous dispersion", "setting": "[2]; [4]", "result": "80 g per 100 g of hydrophilic sur"}, {"measurement": "approximate maximum grams of hydrophobic surfactant per 100 g of hydrophilic surfactant giving a clear aqueous dispersion", "setting": "[2]; hydrophilic surfactant Cremophor RH40 + 20% PEG-400", "result": "80 g per 100 g of hydrophilic sur"}, {"measurement": "approximate maximum grams of hydrophobic surfactant per 100 g of hydrophilic surfactant giving a clear aqueous dispersion", "setting": "[2]; [5]", "result": "80 g per 100 g of hydrophilic sur"}, {"measurement": "approximate maximum grams of hydrophobic surfactant per 100 g of hydrophilic surfactant giving a clear aqueous dispersion", "setting": "[2]; [6]", "result": "80 g per 100 g of hydrophilic sur"}, {"measurement": "approximate maximum grams of hydrophobic surfactant per 100 g of hydrophilic surfactant giving acceptable optical clarity", "setting": "[2]; [7]", "result": "10 g per 100 g of hydrophilic sur"}, {"measurement": "approximate maximum grams of hydrophobic surfactant per 100 g of hydrophilic surfactant giving acceptable optical clarity", "setting": "[2]; [8]", "result": "10 g per 100 g of hydrophilic sur"}, {"measurement": "approximate maximum grams of hydrophobic surfactant per 100 g of hydrophilic surfactant giving acceptable optical clarity", "setting": "[2]; [9]", "result": "80 g per 100 g of hydrophilic sur"}, {"measurement": "approximate maximum grams of hydrophobic surfactant per 100 g of hydrophilic surfactant giving acceptable optical clarity", "setting": "[2]; [10]", "result": "80 g per 100 g of hydrophilic sur"}, {"measurement": "approximate maximum grams of hydrophobic surfactant per 100 g of hydrophilic surfactant giving acceptable optical clarity", "setting": "[2]; [11]", "result": "10 g per 100 g of hydrophilic sur"}, {"measurement": "approximate maximum grams of hydrophobic surfactant per 100 g of hydrophilic surfactant giving acceptable optical clarity", "setting": "[2]; [12]", "result": "15 g per 100 g of hydrophilic sur"}, {"measurement": "approximate maximum grams of hydrophobic surfactant per 100 g of hydrophilic surfactant giving acceptable optical clarity", "setting": "[2]; [13]", "result": "20 g per 100 g of hydrophilic sur"}, {"measurement": "HLB", "setting": "[1]", "result": "3.8-4"}]}, {"compound": "PEG-5 soya sterol", "values": [{"measurement": "HLB", "setting": "[1]", "result": "<10"}]}, {"compound": "PEG-10 soya sterol", "values": [{"measurement": "HLB", "setting": "[1]", "result": "<10"}]}, {"compound": "Propylene glycol dicaprylate/dicaprate", "values": [{"measurement": "HLB", "setting": "[1]", "result": "<6"}]}, {"compound": "Polyglyceryl polyricinoleate", "values": [{"measurement": "HLB", "setting": "[1]", "result": "3-20"}]}, {"compound": "Phytosterol", "values": [{"measurement": "HLB", "setting": "[1]", "result": "<10"}]}, {"compound": "PEG-25 phyto sterol", "values": [{"measurement": "HLB", "setting": "[1]", "result": ">10"}]}, {"compound": "CCCCCCCCCC(=O)OCC(C)OC(=O)CCCCCCCCC", "note": "(stereo not drawn) [Propylene glycol dicaprate]", "values": [{"measurement": "HLB", "setting": "[1]", "result": ">6"}]}, {"compound": "CCCCCCCC(=O)OCC(C)OC(=O)CCCCCCC", "note": "(stereo not drawn) [Propylene glycol dioctanoate]", "values": [{"measurement": "HLB", "setting": "[1]", "result": "<6"}]}, {"compound": "CCCCCCCC/C=C\\CCCCCCCC(=O)OCC", "note": "[Ethyl oleate]", "values": [{"measurement": "effect of added solubilizer on the relative amount of hydrophobic surfactant that can be used", "setting": "[2]; Cremophor RH 40 hydrophilic surfactant, 20% solubilizer", "result": "negligible"}, {"measurement": "approximate maximum grams of hydrophobic surfactant per 100 g of hydrophilic surfactant giving a clear aqueous dispersion", "setting": "[2]; [3]", "result": "60 g per 100 g of hydrophilic sur"}, {"measurement": "approximate maximum grams of hydrophobic surfactant per 100 g of hydrophilic surfactant giving a clear aqueous dispersion", "setting": "[2]; [4]", "result": "60 g per 100 g of hydrophilic sur"}, {"measurement": "approximate maximum grams of hydrophobic surfactant per 100 g of hydrophilic surfactant giving a clear aqueous dispersion", "setting": "[2]; [5]", "result": "60 g per 100 g of hydrophilic sur"}, {"measurement": "approximate maximum grams of hydrophobic surfactant per 100 g of hydrophilic surfactant giving a clear aqueous dispersion", "setting": "[2]; [6]", "result": "60 g per 100 g of hydrophilic sur"}, {"measurement": "approximate maximum grams of hydrophobic surfactant per 100 g of hydrophilic surfactant giving acceptable optical clarity", "setting": "[2]; [7]", "result": "10 g per 100 g of hydrophilic sur"}, {"measurement": "approximate maximum grams of hydrophobic surfactant per 100 g of hydrophilic surfactant giving acceptable optical clarity", "setting": "[2]; [8]", "result": "10 g per 100 g of hydrophilic sur"}, {"measurement": "approximate maximum grams of hydrophobic surfactant per 100 g of hydrophilic surfactant giving acceptable optical clarity", "setting": "[2]; [9]", "result": "40 g per 100 g of hydrophilic sur"}, {"measurement": "approximate maximum grams of hydrophobic surfactant per 100 g of hydrophilic surfactant giving acceptable optical clarity", "setting": "[2]; [10]", "result": "60 g per 100 g of hydrophilic sur"}, {"measurement": "approximate maximum grams of hydrophobic surfactant per 100 g of hydrophilic surfactant giving acceptable optical clarity", "setting": "[2]; [11]", "result": "60 g per 100 g of hydrophilic sur"}, {"measurement": "approximate maximum grams of hydrophobic surfactant per 100 g of hydrophilic surfactant giving acceptable optical clarity", "setting": "[2]; [12]", "result": "10 g per 100 g of hydrophilic sur"}, {"measurement": "approximate maximum grams of hydrophobic surfactant per 100 g of hydrophilic surfactant giving acceptable optical clarity", "setting": "[2]; [13]", "result": "10 g per 100 g of hydrophilic sur"}, {"measurement": "HLB", "setting": "[1]", "result": "<10"}]}, {"compound": "PEG-30 soya sterol", "values": [{"measurement": "HLB", "setting": "[1]", "result": ">10"}]}, {"compound": "CC(C)CCC[C@@H](C)[C@H]1CC[C@H]2[C@@H]3CC=C4C[C@@H](O)CC[C@]4(C)[C@H]3CC[C@]12C", "note": "[Cholesterol]", "values": [{"measurement": "HLB", "setting": "[1]", "result": "<10"}]}, {"compound": "CCCCC/C=C\\C/C=C\\CCCCCCCC(=O)OCC", "note": "[Ethyl linoleate]", "values": [{"measurement": "HLB", "setting": "[1]", "result": "<10"}]}]}
